From patent US20220296594A1, “POTENTIATORS OF ANTIMICROBIAL AND/OR ANTIVIRAL AGENTS” (MASSACHUSETTS INSTITUTE OF TECHNOLOGY, priority 2019, published 2022)
Entries after “also recorded” stand apart in the source; their conditions may differ.

Legend:
[1] = tested on: Escherichia coli strain K-12 MG1655; assay: Time-kill experiments (antibiotic lethality with biochemical supplementation); conditions: for antibiotic lethality: supplementation in wildtype cells, tested antibiotics AMP, CIP and GENT; for ciprofloxacin (CIP) lethality / gentamicin (GENT) lethality / ampicillin (AMP) lethality: time-kill, with vs without the added substance; for ciprofloxacin (CIP) lethality: 16 ng/mL CIP; for gentamicin (GENT) lethality: 48 ng/mL GENT (minimal medium); for ampicillin (AMP) lethality: 4 μg/mL AMP
E. coli cells [2] = assay: Intracellular metabolite quantification by LC-MS/MS after adenine or uracil supplementation; type: cell-based, Escherichia coli
Procedure: Intracellular metabolites were quantified on an AB SCIEX Qtrap® 5500 mass spectrometer (AB SCIEX; Framingham, Mass.), as previously described (McCloskey et al., 2018), and processed using in house scripts. […] Samples were collected 1 hr after supplementation, and aliquots with biomass equivalents to 10 mL of cell culture at OD600=0.1 were subjected to metabolite extraction using a 40:40:20 mixture of acetonitrile, methanol and LC-MS grade water. Uniformly labeled ^13C-standards were generated by growing E. coli in uniformly labeled Glucose M9 minimal media in aerated shake flasks, as previously described (McCloskey et al., 2014). Calibration mixes of standards were split across several mixes, aliquoted, and lyophilized to dryness. All samples and calibrators were equally spiked with the same internal standards. Samples were quantified using […] mass spectrometry. Calibration curves were run before and after all biological and analytical replicates. Consistency of quantification between calibration curves was checked by running a Quality Control sample composed of all biological replicates. Values reported are derived from the average of the biological triplicates, analyzed in duplicate (n=6).
Metabolite concentrations were estimated from LC-MS/MS peak heights using previously generated calibration curves. […] Metabolites in blanks with a concentration greater than 80% of that found in the biological samples were similarly excluded. Missing values were imputed by bootstrapping using the R package Amelia II (v. 1.7.4, 1,000 imputations) (Honaker et al., 2011). Remaining missing values were approximated as ½ the lower limit of quantification for the metabolite normalized to the biomass of the sample. Intracellular metabolite concentrations were calculated based on an estimated cell density of 7·10^7 CFU/mL at OD600=0.1 (FIGS. 5A-5C) and an estimated cell volume of 1.3 fL for non-stressed exponential phase E. coli cells (Milo and Phillips, 2016).

E. coli = assay: Unstressed growth in MOPS minimal medium; conditions: exogenous supplementation, no antibiotic
E. coli cells [3] = assay: Oxygen consumption rate quantification (Seahorse XFe96 Extracellular Flux Analyzer); type: cell-based, Escherichia coli; conditions: for cellular OCR under antibiotic treatment: 1 mM adenine or uracil supplementation, AMP, CIP or GENT treatment; for cellular oxygen consumption rate (OCR) following antibiotic treatment: antibiotic alone, in contrast to control conditions
E. coli cells [4] = conditions: E. coli cells treated with the antibiotic; cited from earlier work
[5] = 1 mM supplementation, 1 hr, MOPS minimal medium

SMILES	antibiotic lethality [1]	ciprofloxacin (CIP) lethality [1]	gentamicin (GENT) lethality [1]	ampicillin (AMP) lethality [1]	cellular oxygen consumption rate (OCR) following antibiotic treatment (E. coli cells [3])	also measured
Nc1ncnc2nc[nH]c12 [adenine]	decreased	decreases	decreases	decreases		NADH/NAD+ ratio (E. coli cells [2]; [5]): unchanged; NADPH/NADP+ ratio (E. coli cells [2]; [5]): modest decrease; adenylate energy charge (E. coli cells [2]; [5]): modest decrease; intracellular fumarate (E. coli cells [2]; [5]): decreased; intracellular succinate (E. coli cells [2]; [5]): increased; intracellular adenine nucleotides (E. coli cells [2]; exogenous adenine addition): accumulate; unstressed growth (E. coli): does not significantly alter; cellular OCR under antibiotic treatment (E. coli cells [3]): significantly repressed
COc1cc(Cc2cnc(N)nc2N)cc(OC)c1OC [trimethoprim]		decreases	increases	decreases		
CC1(C)S[C@@H]2[C@H](NC(=O)[C@H](N)c3ccccc3)C(=O)N2[C@H]1C(=O)O [AMP, ampicillin]					increased	intracellular purine nucleic acid bases (adenine, guanine) (E. coli cells [4]): depleted; intracellular pyrimidine nucleic acid bases (cytosine, thymine, uracil) (E. coli cells [4]): accumulate
Nc1cc[nH]c(=O)n1 [cytosine]	potentiated; also recorded: potentiating effect					
O=C(O)c1cn(C2CC2)c2cc(N3CCNCC3)c(F)cc2c1=O [CIP, ciprofloxacin]					increased	
O=c1ccn([C@@H]2O[C@H](CO)[C@@H](O)[C@H]2O)c(=O)[nH]1 [uridine]	potentiating effect					
CNC(C)C1CCC(N)C(OC2C(N)CC(N)C(OC3OCC(C)(O)C(NC)C3O)C2O)O1 (stereo not drawn) [GENT, gentamicin]					increased	
O=c1cc[nH]c(=O)[nH]1 [uracil]	potentiated; also recorded: potentiating effect	increases	increases	increases		unstressed growth (E. coli): does not significantly alter; cellular OCR under antibiotic treatment (E. coli cells [3]): enhanced
CCn1cc(C(=O)O)c(=O)c2cc(F)c(N3CCNCC3)cc21 [norfloxacin]						intracellular purine nucleic acid bases (adenine, guanine) (E. coli cells [4]): depleted; intracellular pyrimidine nucleic acid bases (cytosine, thymine, uracil) (E. coli cells [4]): accumulate
Sc1ncnc2nc[nH]c12 [6-mercaptopurine]		decreased	increased	decreased		
